What was measured:
[1] = test system: Triticum aestivum; test: Drought stress test on potted crop plants, spray application, visual scoring against stressed control plants; type: in vivo; set-up: key: 0: no positive effect; +: slight positive effect; ++: clear positive effect; +++: strong positive effect; conditions: mean of at least three repeats
Procedure: (§1) Seeds of monocotyledonous and dicotyledonous crop plants were sown in sandy loam in plastic pots, covered with soil or sand and cultivated in a greenhouse under good growth conditions. The test plants are treated at the early leaf stage (BBCH10-BBCH13). To assure uniform water supply before commencement of stress, the potted plants were supplied with water by dam irrigation prior to substance application. The inventive compounds were first formulated as wettable powders (WP) or dissolved in a solvent mixture. The further dilution was effected with water supplemented with 0.2% wetting agent (e.g. agrotin). The finished spray liquor was sprayed onto the green parts of the plant at an equivalent water application rate of 600 I/ha. Substance application was followed immediately by stress treatment of the plants. Drought stress was induced by gradual drying out under the following conditions: “Day”: 14 hours with illumination at […]. “Night”: 10 hours without illumination at […]. The duration of the respective stress phases was guided mainly by the condition of the stressed control plants. It was ended (by re-irrigating and transfer to a greenhouse with good growth conditions) as soon as irreversible damage was observed on the stressed control plants. The end of the stress phase was followed by an about 4-7-day recovery phase, during which the plants were once again kept under good growth conditions in a greenhouse. The duration of the recovery phase was guided mainly by when the trial plants had attained a state which enabled visual scoring of potential effects, and was therefore variable. Once this juncture had been reached, the appearance of the plants treated with test substances was recorded in comparison to the stressed control plants by the following categories: • 0 no positive effect • + slight positive effect • ++ clear positive effect • +++ strong positive effect In order to rule out any influence on the effects observed by any fungicidal or insecticidal action of the test compounds, it was additionally ensured that the tests proceeded without fungal infection or insect infestation. The values reported in tables A-1 and A-2 below are mean values of the results from at least three repeats. Effects of selected compounds of the general formula (I) under drought stress according to the following tables A-1 and A-2: In the above tables: BRSNS =Brassica napus TRZAS =Triticum aestivum

[2] = target: T1, phosphatase ABI1 via the co-regulator RCAR11/PYR1 (Arabidopsis thaliana, UniProt O49686+P49597); test: In vitro assay: inhibition of ABI1 dephosphorylation of 4-methylumbelliferyl phosphate (MUP), fluorescence; type: biochemical; conditions: concentration of 5 mM of the substance in DMSO and water, 35° C., 20 minutes
T1 sequence (O49686 1-191): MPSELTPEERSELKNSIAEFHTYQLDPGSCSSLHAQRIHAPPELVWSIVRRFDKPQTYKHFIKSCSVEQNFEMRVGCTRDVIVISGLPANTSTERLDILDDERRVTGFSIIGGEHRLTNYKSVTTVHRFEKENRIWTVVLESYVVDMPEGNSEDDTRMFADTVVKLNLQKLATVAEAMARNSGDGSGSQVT
T1 sequence (P49597 1-434): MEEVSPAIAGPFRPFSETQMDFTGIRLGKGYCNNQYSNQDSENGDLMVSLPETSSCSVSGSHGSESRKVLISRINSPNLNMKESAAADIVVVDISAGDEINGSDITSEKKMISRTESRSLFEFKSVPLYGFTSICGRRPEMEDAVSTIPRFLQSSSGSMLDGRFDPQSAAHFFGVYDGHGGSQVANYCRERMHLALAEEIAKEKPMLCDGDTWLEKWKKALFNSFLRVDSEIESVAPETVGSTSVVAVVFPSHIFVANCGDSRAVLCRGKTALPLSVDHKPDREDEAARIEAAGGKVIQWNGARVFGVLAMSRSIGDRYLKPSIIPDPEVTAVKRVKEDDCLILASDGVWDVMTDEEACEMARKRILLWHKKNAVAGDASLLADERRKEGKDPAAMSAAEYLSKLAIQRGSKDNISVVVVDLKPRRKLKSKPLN
Description: Effects of the phytohormone abscisic acid (ABA) on the behavior of plants under abiotic stress and the mechanism of action of ABA are described in the literature (cf. Abrams et al., WO97/23441, Park et al. Science, 2009, 324, 1068; Grill et al. Science, 2009, 324, 1064; Tanokura et al. Biophysics, 2011, 7, 123; Schroeder et al. Plant J. 2010, 61, 290). Therefore, it is possible with the aid of a suitable in vitro test system to derive a correlation between the action of ABA and the stress response of a plant under abiotic stress. In the event of water deficiency (drought stress), plants form the phytohormone abscisic acid (ABA). This binds, along with a co-regulator (Regulatory Component of ABA-Receptor=RCAR according to Grill et al. Science, 2009, 324, 1064 or PYR/PYL according to Cutler et al. Science, 2009, 324, 1068), to a phosphatase (e.g. ABI1, a type 2C protein phosphatase, also abbreviated to PP2C) and inhibits its activity. As a result, a “downstream” kinase (e.g. SnRK2) is no longer dephosphorylated. This kinase, which is thus active, via phosphorylation of transcription factors (e.g. AREB/ABF, cf. Yoshida et al Plant J. 2010, 61, 672), switches on a genetic protection program to increase drought stress tolerance. The assay described hereinafter utilizes the inhibition of the phosphatase ABI1 via the co-regulator RCAR11/PYR1 aus Arabidopsis thaliana. For the determination of activity, the dephosphorylation of 4-methylumbelliferyl phosphate (MUP) was measured at 460 nm. The in vitro assay was conducted in Greiner 384-well PS microplates F-well, using two controls: a) 0.5% dimethyl sulfoxide (DMSO) and b) 5 μM abscisic acid (ABA). The assay described here was generally conducted with substance concentrations of the appropriate chemical test substances in a concentration range of 0.1 μM to 100 μM in a solution of DMSO and water. The substance solution thus obtained, if necessary, was stirred with esterase from porcine liver (EC 3.1.1.1) at room temperature for 3 h and centrifuged at 4000 rpm for 30 min. A total volume of 45 μl was introduced into each cavity of the microplate, having the following composition: • 1) 5 μl of substance solution, i.e. a) DMSO 5% or b) abscisic acid solution or c) the corresponding example compound of the general formula (I) dissolved in 5% DMSO. • 2) 20 μl of enzyme buffer mix, composed of a) 40% by vol. of enzyme buffer (10 ml contain equal proportions by volume of 500 mM Tris-HCl pH 8, 500 mM NaCl, 3.33 mM MnCl2, 40 mM dithiothreitol (DTT)), b) 4% by vol. of ABI1 dilution (protein stock solution was diluted so as to give, after addition, a final concentration in the assay of 0.15 μg ABI1/well), c) 4% by vol. of RCAR11 dilution (enzyme stock was diluted so as to give, on addition of the dilution to the enzyme buffer mix, a final concentration in the assay of 0.30 μg enzyme/well), d) 5% by vol. of Tween20 (1%), e) 47% by vol. H2O bi-dist. • 3) 20 μl of substrate mix, composed of a) 10% by vol. of 500 mM Tris-HCl pH 8, b) 10% by vol. of 500 mM NaCl, c) 10% by vol. of 3.33 mM MnCl2, d) 5% by vol. of 25 mM MUP, 5% by vol. of Tween20 (1%), 60% by vol. of H2O bi-dist.
Enzyme buffer mix and substrate mix were made up 5 minutes prior to the addition and warmed to a temperature of 35° C. On completion of pipetting of all the solutions and on completion of mixing, the plate was incubated at 35° C. for 20 minutes. Finally, a relative fluorescence measurement was made at 35° C. with a BMG Labtech “POLARstar Optima” microplate reader using a 340/10 nm excitation filter and a 460 nm emission filter. The efficacy of the compounds of the general formula (I) is reported in the table which follows using abscisic acid […] as comparative substance (no. 38) according to the following classification: ++++(inhibition ≧90%), +++(90% >inhibition ≧70%), ++(70% >inhibition ≧50%), +(50% >inhibition ≧30%). […]

[3] = test system: Brassica napus; test: Drought stress test on potted crop plants, spray application, visual scoring against stressed control plants; type: in vivo; set-up: key: 0: no positive effect; +: slight positive effect; ++: clear positive effect; +++: strong positive effect; conditions: mean of at least three repeats
Procedure: as §1

## CC1(N2C(=O)CCc3cc(NS(=O)(=O)c4ccc(C#N)cc4)ccc32)CC1 [A1-45]
[1]; dosage 25 g/ha
  Effect (TRZAS): +

## CC1CCC1N1C(=O)CCc2cc(NS(=O)(=O)c3ccc(C#N)cc3)ccc21 (stereo not shown) [A38-45]
[1]; dosage 250 g/ha
  Effect (TRZAS): +

## N#Cc1ccc(S(=O)(=O)Nc2ccc3c(c2)CCC(=O)N3C23CC(C2)C3)cc1 [A30-45]
[1]; dosage 250 g/ha
  Effect (TRZAS): +

## O=C1CCc2cc(NS(=O)(=O)Cc3ccc(Cl)cc3)ccc2N1C1(C2CC2)CC1 [A3-165]
[2]
  ABI1 inhibition: ++++ (inhibition ≧90%)
[1]; dosage 250 g/ha
  Effect (TRZAS): +

## Cc1cccc(CS(=O)(=O)Nc2ccc3c(c2)CCC(=O)N3C23CC(C2)C3)c1 [A30-153]
[2]
  ABI1 inhibition: +++ (90% >inhibition ≧70%)
[3]; dosage 250 g/ha
  Effect (BRSNS): +

## CC1(N2C(=O)CCc3cc(NS(=O)(=O)Cc4cccc(Cl)c4)ccc32)CC1 [A1-166]
[2]
  ABI1 inhibition: +++ (90% >inhibition ≧70%)
[3]; dosage 250 g/ha
  Effect (BRSNS): ++

## CC1(N2C(=O)CCc3cc(NS(=O)(=O)Cc4ccc(Cl)cc4)ccc32)CC1 [A1-165, 1-(4-Chlorophenyl)-N-[1-(1-methylcyclopropyl)-2-oxo-1,2,3,4-tetrahydroquinolin-6-yl]methanesulfonamide]
[2]
  ABI1 inhibition: ++++ (inhibition ≧90%)
[3]; dosage 250 g/ha
  Effect (BRSNS): ++
[1]; dosage 250 g/ha
  Effect (TRZAS): +

## CC1(N2C(=O)CCc3cc(NS(=O)(=O)Cc4ccc(C#N)cc4)ccc32)CC1 [A1-181]
[2]
  ABI1 inhibition: ++++ (inhibition ≧90%)
[3]; dosage 250 g/ha
  Effect (BRSNS): ++
[1]; dosage 250 g/ha
  Effect (TRZAS): +

## O=C1CCc2cc(NS(=O)(=O)Cc3ccc(Cl)cc3)ccc2N1C1CC1C(F)(F)F (stereo not shown) [A37-165]
[2]
  ABI1 inhibition: +++ (90% >inhibition ≧70%)
[1]; dosage 250 g/ha
  Effect (TRZAS): ++

## O=C1CCc2cc(NS(=O)(=O)Cc3ccc(F)cc3)ccc2N1C12CC(C1)C2 [A30-158]
[2]
  ABI1 inhibition: ++++ (inhibition ≧90%)
[1]; dosage 25 g/ha
  Effect (TRZAS): +

## N#Cc1ccc(CS(=O)(=O)Nc2ccc3c(c2)CCC(=O)N3C2(C3CC3)CC2)cc1 [A3-181]
[2]
  ABI1 inhibition: ++++ (inhibition ≧90%)
[1]; dosage 25 g/ha
  Effect (TRZAS): +

## O=C1CCc2cc(NS(=O)(=O)Cc3ccc(F)cc3)ccc2N1C1(C2CC2)CC1 [A3-158]
[2]
  ABI1 inhibition: ++++ (inhibition ≧90%)
[1]; dosage 250 g/ha
  Effect (TRZAS): +

## N#Cc1ccc(S(=O)(=O)Nc2ccc3c(c2)CCC(=O)N3C2CC2C2CC2)cc1 (stereo not shown) [A16-45]
[3]; dosage 25 g/ha
  Effect (BRSNS): ++
[1]; dosage 25 g/ha
  Effect (TRZAS): +

## N#Cc1ccc(S(=O)(=O)Nc2ccc3c(c2)CCC(=O)N3C2CC(F)(F)C2)cc1 [A39-45]
[1]; dosage 250 g/ha
  Effect (TRZAS): ++

## CC1CC(N2C(=O)CCc3cc(NS(=O)(=O)Cc4ccc(F)cc4)ccc32)C1 (stereo not shown) [A26-158]
[2]
  ABI1 inhibition: ++++ (inhibition ≧90%)
[3]; dosage 25 g/ha
  Effect (BRSNS): +

## O=C1CCc2cc(NS(=O)(=O)Cc3ccc(Cl)cc3)ccc2N1C12CC(C1)C2 [A30-165]
[2]
  ABI1 inhibition: ++++ (inhibition ≧90%)
[1]; dosage 250 g/ha
  Effect (TRZAS): ++

## Cc1ccc(CS(=O)(=O)Nc2ccc3c(c2)CCC(=O)N3C2(C3CC3)CC2)cc1 [A3-152, N-{1-[1,1′-bi(cyclopropyl)-1-yl]-2-oxo-1,2,3,4-tetrahydroquinolin-6-yl}-1-(4-methylphenyl)methanesulfonamide]
[2]
  ABI1 inhibition: ++++ (inhibition ≧90%)

## CCc1ccc(CS(=O)(=O)Nc2ccc3c(c2)CCC(=O)N3C2(C3CC3)CC2)cc1 [A3-325]
[2]
  ABI1 inhibition: ++++ (inhibition ≧90%)

## N#Cc1ccc(CS(=O)(=O)Nc2ccc3c(c2)CCC(=O)N3C23CC(C2)C3)cc1 [A30-181]
[2]
  ABI1 inhibition: ++++ (inhibition ≧90%)

## O=C1CCc2cc(NS(=O)(=O)Cc3ccc(Cl)cc3)ccc2N1C1CC2(CCC2)C1 [A33-165]
[2]
  ABI1 inhibition: +++ (90% >inhibition ≧70%)
